The values below come from US6716851B2, “Substituted 2-aryl-4-arylaminopyrimidines and analogs as activators or caspases and inducers of apoptosis and the use thereof” (Cytovia, Inc., priority 2000, dated 2004).

By EC50 is commonly meant the concentration needed to bring the measured effect to its halfway point.

The test system of assay [1] is T-47D cells. Description: Caspase cascade activation (N-(Ac-DEVD)-N'-ethoxycarbonyl-R110 fluorogenic substrate) in T-47D cells. The format is cell-based, Human. The conditions noted are these: 48 h incubation; for EC50: Homo sapiens, T47D, caspase activation potency, read-out: T47 EC50; for T47 Ratio 48 hr: caspase activity: ratio of net RFU of test compound to control. The protocol:
(§1) Human breast cancer cell lines T-47D and ZR-75-1 were grown according to media component mixtures designated by American Type Culture Collection +10% FCS (Invitrogen Corporation, Life Technologies division), in a 5% CO2-95% humidity incubator at 37° C. T-47D and ZR-75-1 cells were maintained at a cell density between 50 and 80% confluency at a cell density of 0.1 to 0.6×10^6 cells/ml. Cells were harvested at 600× g and resuspended at 0.65×10^6 cells/ml into appropriate media +10% FCS. An aliquot of […] of cells was added to a well of a […] microtiter plate containing 2.5 μl of a 10% DMSO in RPMI-1640 media solution containing 0.16 to 100 μM of 4-(3-methoxyanilino)-2-(2-pyridinyl)-6-(trifluoromethyl)pyrimidine or other test compound (0.016 to 10 μM final). An aliquot of 22.5 μl of cells was added to a well of a 384-well microtiter plate containing 2.5 μl of a 10% DMSO in RPMI-1640 media solution without test compound as the control sample. The samples were mixed by agitation and then incubated at 37° C. for 48 h in a 5% CO2-95% humidity incubator. After incubation, the samples were removed from the incubator and 25 μl of a solution containing 14 μM of N-(Ac-DEVD)-N′-ethoxycarbonyl-R110 fluorogenic substrate (Cytovia, Inc.; WO99/18856), 20% sucrose (Sigma), 20 mM DTT (Sigma), 200 mM NaCl (Sigma), 40 mM Na PIPES buffer pH 7.2 (Sigma), and 500 μg/ml lysolecithin (Calbiochem) was added. The samples were mixed by agitation and incubated at room temperature. Using a fluorescent plate reader (Model SpectraMax Gemini, Molecular Devices), an initial reading (T=0) was made approximately 1-2 min after addition of the substrate solution, employing excitation at 485 nm and emission at 530 nm, to determine the background fluorescence of the control sample. After the 3 h incubation, the samples were read for fluorescence as above (T=3 h).
(§2) The Relative Fluorescence Unit values (RFU) were used to calculate the sample readings as follows:
(§3) RFU(T=3h)−Control RFU(T=0)=Net RFU(T=3h)
(§4) The activity of caspase cascade activation was determined by the ratio of the net RFU value for 4-(3-methoxyanilino)-2-(2-pyridinyl)-6-(trifluoromethyl)pyrimidine or other test compound to that of control samples. The EC50 (nM) was determined by a sigmoidal dose-response calculation (Prism 2.0, GraphPad Software Inc.).

The subject of assay [2] is ZR-75-1 cells. Description: Caspase cascade activation (N-(Ac-DEVD)-N'-ethoxycarbonyl-R110 fluorogenic substrate) in ZR-75-1 cells. The format is cell-based, Human. To be noted: ZR-75-1, 48 h incubation; for EC50: Homo sapiens, caspase activation potency; for ZR Ratio 48 hr: caspase activity: ratio of net RFU of test compound to control. The protocol: as §1, §2, §3, §4

As for `COc1ccc(C)c(Nc2cc(C(F)(F)F)nc(-c3cccnc3)n2)c1` [Example 51, 4-(5-Methoxy-2-methylanilino)-2-(3-pyridinyl)-6-(trifluoromethyl)pyrimidine], in assay [1], the concentration giving a half-maximal response (EC50) is 29 nM and the “T47 Ratio 48 hr” value turned out to be 11. In assay [2], the EC50 is 56 nM and the “ZR Ratio 48 hr” value was determined as 5.9.
For `Cc1ccc(F)cc1Nc1cc(C(F)(F)F)nc(-c2cccnc2)n1` [Example 88, 4-(5-Fluoro-2-methylanilino)-2-(3-pyridinyl)-6-(trifluoromethyl)pyrimidine] the same measures were 2320 nM, 9.8, 1220 nM and 8.0.
On to `COc1cccc(N(C)c2cc(C(F)(F)F)nc(-c3ccccn3)n2)c1` [Example 160, 4-(N-Methyl-3-methoxyanilino)-2-(2-pyridinyl)-6-trifluoromethyl-pyrimidine], for which, in assay [1], the EC50 was over 5000 nM and the “T47 Ratio 48 hr” value is listed as 1.0. In assay [2], the EC50 is over 5000 nM and the “ZR Ratio 48 hr” value is listed as 1.4.
Regarding `Cc1cc(Nc2cc(C(F)(F)F)nc(-c3ccncc3)n2)c(C)cc1O` [Example 149, 4-(2,5-Dimethyl-4-hydroxyanilino)-2-(4-pyridinyl)-6-(trifluoromethyl)pyrimidine], in assay [1], the EC50 amounted to 75 nM and the “T47 Ratio 48 hr” value is listed as 16.0. Also, in assay [2], the half-maximal effective concentration (EC50) turned out to be 46 nM and the “ZR Ratio 48 hr” value is 10.0.
For `COc1ccc(Cl)c(Nc2cc(C)nc(-c3ccccn3)n2)c1` [Example 52, 4-(2-Chloro-5-methoxyanilino)-6-methyl-2-(2-pyridinyl)pyrimidine] the same measures were 108 nM, 20.9, 98 nM and 7.2.
For `COc1cccc(Nc2cc(C)nc(-c3ccccn3)n2)c1` [Example 16, 4-(3-Methoxyanilino)-6-methyl-2-(2-pyridinyl)pyrimidine] the same measures were 288 nM, 19.5, 292 nM and 3.3.
In the case of `FC(F)(F)c1cc(Nc2cccc(Oc3ccccc3)c2)nc(-c2cccnc2)n1` [Example 67, 4-(3-Phenoxyanilino)-2-(3-pyridinyl)-6-(trifluoromethyl)pyrimidine], in assay [1], the EC50 is over 5000 nM and the “T47 Ratio 48 hr” value is reported as 1.5. Further, in assay [2], the half-maximal effective concentration (EC50) was over 5000 nM and the “ZR Ratio 48 hr” value worked out at 1.2.
Consider `COc1cc(Nc2cc(C(F)(F)F)nc(-c3cccnc3)n2)cc(C(F)(F)F)c1` [Example 124, 4-(3-Methoxy-5-trifluoromethylanilino)-2-(3-pyridinyl)-6-(trifluoromethyl)pyrimidine], for which, in assay [1], the 50% effective concentration (EC50) turned out to be 720 nM and the “T47 Ratio 48 hr” value was found to be 19.9. For the same compound, in assay [2], the EC50 was determined as 688 nM and the “ZR Ratio 48 hr” value is listed as 16.3.
For `O=C(Nc1ccccc1)c1cccc(Nc2cc(C(F)(F)F)nc(-c3cccnc3)n2)c1` [Example 66, 4-[3-(N-phenylamide)anilino]-2-(3-pyridinyl)-6-(trifluoromethyl)pyrimidine] the same measures were over 5000 nM, 1.2, over 5000 nM and 0.9.
Take `Cc1cc(Nc2cc(C(F)(F)F)nc(-c3ccccn3)n2)c(C)cc1O.Cl` [Example 147, 4-(2,5-Dimethyl-4-hydroxyanilino)-2-(2-pyridinyl)-6-(trifluoromethyl)pyrimidine hydrochloride]: in assay [1], the EC50 was determined as 335 nM and the “T47 Ratio 48 hr” value was determined as 13.3. For the same compound, in assay [2], the 50% effective concentration (EC50) was determined as 204 nM and the “ZR Ratio 48 hr” value is 8.4.
`CCOc1ccc(OCC)c(Nc2cc(C(F)(F)F)nc(-c3cccnc3)n2)c1` [Example 102, 4-(2,5-Diethoxyanilino)-2-(3-pyridinyl)-6-(trifluoromethyl)pyrimidine]: in assay [1], the EC50 turned out to be 512 nM and the “T47 Ratio 48 hr” value amounted to 8.0. Also, in assay [2], it took 701 nM to reach a half-maximal effect (EC50) and the “ZR Ratio 48 hr” value amounted to 7.4.
`COc1ccc(Cl)cc1Nc1cc(C(F)(F)F)nc(-c2cccnc2)n1` [Example 180, 4-(5-Chloro-2-methoxyanilino)-2-(3-pyridinyl)-6-trifluoromethylpyrimidine]: in assay [1], the EC50 was determined as 637 nM and the “T47 Ratio 48 hr” value amounted to 15.1. In assay [2], the concentration giving a half-maximal response (EC50) worked out at 698 nM and the “ZR Ratio 48 hr” value came out at 8.7.
In the case of `COc1ccc(C)cc1Nc1cc(C(F)(F)F)nc(-c2cccnc2)n1` [Example 87, 4-(2-Methoxy-5-methylanilino)-2-(3-pyridinyl)-6-(trifluoromethyl)pyrimidine], in assay [1], the half-maximal effective concentration (EC50) is under 75 nM and the “T47 Ratio 48 hr” value stood at 19.2. For the same compound, in assay [2], the concentration for a half-maximal effect (EC50) was under 75 nM and the “ZR Ratio 48 hr” value came to 16.9.
With `COc1ccc(C)c(Nc2cc(C(F)(F)F)nc(-c3ccncc3)n2)c1` [Example 55, 4-(5-Methoxy-2-methylanilino)-2-(4-pyridinyl)-6-(trifluoromethyl)pyrimidine], in assay [1], the EC50 was 21 nM and the “T47 Ratio 48 hr” value is 8.4. Also, in assay [2], the concentration for a half-maximal effect (EC50) was 18 nM and the “ZR Ratio 48 hr” value was determined as 7.1.
`Cc1cc(C)cc(Nc2cc(C(F)(F)F)nc(-c3cccnc3)n2)c1` [Example 121, 4-(3,5-Dimethylanilino)-2-(3-pyridinyl)-6-(trifluoromethyl)pyrimidine]: in assay [1], the EC50 came to 480 nM and the “T47 Ratio 48 hr” value was 11.2. Further, in assay [2], a half-maximal response (EC50) required 380 nM and the “ZR Ratio 48 hr” value stood at 9.9.
Consider `COc1cc(Nc2cc(C(F)(F)F)nc(-c3cccnc3)n2)c(C(C)=O)cc1OC` [Example 134, 4-(2-Acetyl-4,5-dimethoxyanilino)-2-(3-pyridinyl)-6-(trifluoromethyl)pyrimidine], for which, in assay [1], the EC50 came out at 807 nM and the “T47 Ratio 48 hr” value stood at 16.5. In assay [2], the EC50 is over 5000 nM and the “ZR Ratio 48 hr” value amounted to 1.5.
Take `COc1cccc(Nc2nc(-c3ccc(C(F)(F)F)cn3)nc(C)c2Cl)c1` [Example 15, 4-(3-Methoxyanilino)-5-chloro-6-methyl-2-[5-(trifluoromethyl)-2-pyridinyl]pyrimidine]: in assay [1], the EC50 was over 5000 nM and the “T47 Ratio 48 hr” value turned out to be 2.5. Also, in assay [2], the EC50 is over 5000 nM and the “ZR Ratio 48 hr” value amounted to 2.7.
Consider `COc1ccc(Nc2cc(C(F)(F)F)nc(-c3cccnc3)n2)c(OC)n1` [Example 206, 4-(2,6-Dimethoxypyridin-3-ylamino)-2-(3-pyridinyl)-6-trifluoromethylpyrimidine], for which, in assay [1], the concentration giving a half-maximal response (EC50) is 802 nM and the “T47 Ratio 48 hr” value stood at 6.9. Besides, in assay [2], the EC50 was 583 nM and the “ZR Ratio 48 hr” value is recorded as 2.9.
For `COc1cccc(Nc2cc(N3CCOCC3)nc(-c3ccccc3)n2)c1` [Example 46, 6-Morpholino-4-(3-methoxyanilino)-2-phenyl-pyrimidine] the same measures were over 5000 nM, 1.5, over 5000 nM and 1.4.
For the compound `Cc1ccc(Cl)c(Nc2cc(C(F)(F)F)nc(-c3cccnc3)n2)c1` [Example 123, 4-(2-Chloro-5-methylanilino)-2-(3-pyridinyl)-6-(trifluoromethyl)pyrimidine], in assay [1], the EC50 was 763 nM and the “T47 Ratio 48 hr” value is 21.2. In addition, in assay [2], the response was half-maximal at 725 nM (EC50) and the “ZR Ratio 48 hr” value turned out to be 15.8.
Consider `COc1ccc(C)cc1Nc1cc(C(F)(F)F)nc(-c2ccncc2)n1` [Example 116, 4-(2-Methoxy-5-methylanilino)-2-(4-pyridinyl)-6-(trifluoromethyl)pyrimidine], for which, in assay [1], the concentration giving a half-maximal response (EC50) was 71 nM and the “T47 Ratio 48 hr” value turned out to be 13.7. Moreover, in assay [2], the response was half-maximal at 73 nM (EC50) and the “ZR Ratio 48 hr” value came out at 8.8.
As for `COc1ccc(OC)c(Nc2cc(C)nc(-c3ccccn3)n2)c1` [Example 21, 4-(2,5-Dimethoxyanilino)-6-methyl-2-(2-pyridinyl)pyrimidine], in assay [1], the EC50 was under 156 nM and the “T47 Ratio 48 hr” value turned out to be 15.5. In addition, in assay [2], the concentration giving a half-maximal response (EC50) is under 156 nM and the “ZR Ratio 48 hr” value was found to be 12.0.
